Assays:
[1] = test system: preclinical models and glaucoma patients; parameters: method as in PMID 25488946, PMID 28234563, PMID 21396362; conditions: cited from earlier work
[2] = test system: retinal ganglion cells (RGCs) in retinal ischemia–reperfusion injury rats; experiment: Retinal ischemia–reperfusion injury model in rats (HE staining, Brn-3a immunofluorescence); type: in vivo, rat; conditions: Memantine 10 mg/kg tail vein, vs Model group
Description: Male Sprague Dawley rats were anesthetized with pentobarbital sodium (30 mg/kg, i.p.). Local anesthesia was administered to the corneas using tetracaine hydrochloride, followed by pupil dilation with tropicamide. A 30-gauge infusion needle was inserted into the anterior chamber of the eye and connected to a normal saline reservoir until the iris turned white. Retinal ischemia was maintained for 1 h at IOP of 110 mmHg. Upon careful withdrawal of the needle, IOP returned to normal, thereby inducing retinal ischemia–reperfusion injury. MN-08 (12 mg/kg) and Memantine (10 mg/kg) were administered via tail vein injection at 3 and 6 h post-surgery and continued twice daily for the subsequent two days. […]
Rats were euthanized by deep anesthetization with pentobarbital sodium (100 mg/kg, i.p.), and their eyes were enucleated for histology analysis. […] Ganglion cell complex (GCC) thickness and the RGCs numbers (retinal ganglion cell layer) were measured and analyzed with ImageJ software.
Eyes of sacrificed rats were rapidly removed; the cornea was cut along the corneoscleral rim after rinsing with PBS under the microscope. […] RGCs were observed using a fluorescence microscope (Olympus, Tokyo, Japan). The number of Brn-3a positive cells was counted manually in five randomly selected fields of view for each region of the whole-mount retina (including the center, mid-periphery, and periphery).

[3] = test system: human trabecular meshwork cells (HTMCs); experiment: cGMP ELISA assay in HTMCs; type: cell-based; conditions: 30 min
Description: Primary human trabecular meshwork cells (HTMCs) were isolated from the juxtacanalicular and corneoscleral regions of the human eye from ScienCell Research Laboratories (ScienCell, Carlsbad, CA). HTMCs were maintained in a complete medium consisting of DMEM enriched with 10% fetal bovine serum (FBS) and antibiotics (100 U/ml penicillin and 100 μg/ml streptomycin). Cells were cultured in a humidified incubator containing 5% CO2 at 37 °C. Experiments are conducted using HTMCs between the 5th and 8th passages to avoid cellular senescence. All reagents were obtained from Gibco (San Diego, CA, USA).
HTMCs were seeded at a density of 2 × 10^5 cells per well in 6-well plates. When reaching 80% confluency, the cells were subsequently incubated overnight in low-serum medium (DMEM supplemented with 0.5% FBS). […] After incubating, cells were harvested and lysed, and the levels of cGMP were detected by an ELISA kit (Abcam Corporation, Cambridge, UK). The procedure was conducted following the instructions provided by the manufacturer.

glaucoma patients = conditions: cited from earlier work
[4] = test system: carbomer-induced glaucoma rabbit model; experiment: Carbomer-induced experimental glaucoma model in rabbits (IOP); type: in vivo; conditions: latanoprost 0.005% single topical instillation; 0-360 min
Description: The methods were performed as previously described. New Zealand rabbits were anesthetized using an auricular vein injection of 60 mg/kg pentobarbital sodium. Local anesthesia of the corneas was achieved using tetracaine hydrochloride, followed by pupil dilation with tropicamide. An experimental glaucoma model was established by bilaterally injecting 0.25% carbomer (0.1 mL) into the anterior eye chamber of the rabbits. On the fifth day post-carbomer injection, stable high IOP was induced in the rabbits. MN-08 (0.5%, 0.2%, 0.1%, and 0.02%) or latanoprost (0.005%) was administered with a single topical instillation. IOP was measured continuously at 0, 30, 60, 120, 240, and 360 min following instillation with MN-08 or latanoprost (with 5 consecutive measurements being averaged to obtain a single value). At the last IOP measurement, the rabbits were euthanized under sodium pentobarbital anesthesia (100 mg/kg, i.v).

SMILES: O=C(CCC/C=C\C[C@@H]1[C@@H](CC[C@@H](O)CCc2ccccc2)[C@H](O)C[C@@H]1O)OCCCCO[N+](=O)[O-] [Latanoprostene bunod (LBN), Latanoprostene bunod]
- reduction in IOP compared to latanoprost [1]: great reduction

SMILES: CC12CC3CC(C)(C1)CC(N)(C3)C2 [Memantine]
- degree of retinal damage (HE staining) ([2]; 3 and 6 h post-surgery then twice daily for two days): reduced
- survival of RGCs (Brn-3a positive cells) [2]: significantly increased
- cGMP levels ([3]; memantine 10 μM): neither latanoprost (0.1 μM) nor memantine (10 μM) had any statistically significant effects
- glaucoma progression (glaucoma patients; clinical trials): failed to significantly delay
- effect in protecting visual function (glaucoma patients; phase 3 clinical trial): no significant effect

SMILES: CC(C)OC(=O)CCC/C=C\C[C@@H]1[C@@H](CC[C@@H](O)CCc2ccccc2)[C@H](O)C[C@@H]1O [latanoprost]
- carbomer-induced IOP elevation (change from baseline) [4]: reduced
- cGMP levels ([3]; latanoprost 0.1 μM): neither latanoprost (0.1 μM) nor memantine (10 μM) had any statistically significant effects

— publication PMC12229680, “Neuroprotective and intraocular pressure lowering effects of dual-functional memantine nitrate MN-08 on the experimental models of glaucoma” (Scientific Reports, 2025)
